Each structure is given as a SMILES string.

Assay type in all cases: in vivo, mouse
The subject of experiment [1] is 1014 tumors. Kind of experiment: Flow cytometry of tumor-infiltrating immune cells from 1014 tumors. As to conditions: day 7 post treatment, over the control group. For orientation: In flow cytometry, cells or beads pass a laser one at a time.
For experiment [2], the system named is WM1366-iCas9 xenograft. Put plainly: WM1366-iCas9 xenograft tumor growth in Nu/J mice. As to conditions: trametinib-containing chow (0.3 ppm) compared with control chow. An excerpt:
FIG. 13A-13D: PDPK1 depletion delayed xenograft tumor growth in Nu/J mice, in accordance with some embodiments. FIG. 13A, Tumor growth of WM1366-iCas9 and PDPK1 knockout (KO) cells, represented as the change in volume (mm^3) over time, was shown from the start of injection to the start of treatment as indicated. Cyan dots indicated sacrifice of mice due to lack of visible tumors. The dotted line at 50 mm^3 indicates the size at which trametinib treatment was started. FIG. 13B: Time for tumor growth of WM1366-iCas9 cells to the start of treatment in male and female mice. Lines represent median number of days from the time of tumor implantation to the treatment size of 50 mm^3. The mouse without tumor formation was monitored for 105 days. p values were calculated with an unpaired two-tailed t test. […] FIG. 13D: Kaplan-Meier survival curves of WM1366-iCas9 tumor-bearing in female or male mice as indicated. p values were calculated by GraphPad Prism 9.0 with Log-rank (Mantel-Cox) test. n.s., not significant.
(§1) Animal experiments were performed at Thomas Jefferson University in a facility accredited by the Association for the Assessment and Accreditation of Laboratory Animal Care and were approved by the Institutional Animal Care and Use Committee (protocol #1052). […] Mouse weights were monitored once a week or three times per week during drug treatment. […]

The test system of experiment [3] is SK-MEL-30 xenografts. Kind of experiment: SK-MEL-30 xenograft model in Nu/J mice. The conditions noted are these: trametinib chow and/or GSK2334470 100 mg/kg intraperitoneally every 3 days. As for the experimental part:
FIG. 4A-4B, In Nu/J mice, SK-MEL-30 tumor growth (FIG. 4A) represented as the change in volume (mm^3) over time and Kaplan-Meier survival curves (FIG. 4B) were shown from the start of treatment as indicated. Ctrl: control chow+mock injection (n=7), Tram: trametinib chow+mock injection (n=7), G4470: control chow+GSK2334470 injection (n=5), Comb: trametinib chow+GSK2334470 injection (n=7). Mice were injected and tumor volume was monitored every 3 days. Data are represented as the mean±SEM. The dotted line at 1000 mm^3 marks the experimental endpoint. p values were calculated by GraphPad Prism 9.0 with Log-rank (Mantel-Cox) test. n.s., not significant. […]
FIGS. 14A-14B: Sex disparities in SK-MEL-30 xenografts, in accordance with some embodiments. […] Mice were injected and tumor volume was monitored every 3 days. […] The dotted line at 1000 mm^3 marks the experimental endpoint. p values were calculated by GraphPad Prism 9.0 with Log-rank (Mantel-Cox) test. n.s., not significant.
as §1

Take `CC(=O)Nc1cccc(-n2c(=O)n(C3CC3)c(=O)c3c(Nc4ccc(I)cc4F)n(C)c(=O)c(C)c32)c1` [trametinib, N-(3-(3-cyclopropyl-5-((2-fluoro-4-iodophenyl)amino)-6,8-dimethyl-2,4,7-trioxo-3,4,6,7-tetrahydropyrido[4,3-d]pyrimidin-1(2H)-yl)phenyl)acetamide]: the “frequency of CD8+ T cells within the CD45+ cell compartment” value in experiment [1] was “intermediate effect”. The tumor growth result is reported as “delayed” in experiment [2] and “suppressed tumor growth modestly” in experiment [3].
